According to patent US9790220B2, “Substituted cyclopentanes, tetrahydrofuranes and pyrrolidines as orexin receptor antagonists” (Takeda Pharmaceutical Company Limited, priority 2014, dated 2017):
pIC50: −log10 of the molar value.

Tests used:
human orexin receptor 1 = human orexin receptor 1 (Homo sapiens (Human), UniProt O43613); assay: Orexin antagonist activity, intracellular calcium FLIPR assay (orexin receptor 1); assay type: cell-based; details: RBL-2H3 cells stably expressing human orexin receptor 1; orexin-A at approx. 80% maximal response; 15 min preincubation; read-out: Human Orexin1R IC50
Protocol: (§1) Orexin antagonist activity was determined by measuring changes in intracellular calcium levels using a Ca^2+ sensitive fluorescent dye. The changes in fluorescent signal were monitored by Fluorescent Imaging Plate Reader (FLIPR™) technology available from Molecular Devices, LLC, U.S.A. Orexin mediated increases in intracellular Ca^2+ concentration were readily detected upon activation with orexin-A. Twenty-four hours prior to the assay, RBL-2H3 cells stably expressing either human orexin receptor 1 or human orexin receptor 2 were seeded in cell culture medium in black, clear-bottom 384-well plates (commercially available from Corning Inc., U.S.A.) and grown overnight at 37° C., 5% CO2. On the day of the assay, cell culture media was removed and cells were loaded with Calcium 5 Dye (commercially sold by Molecular Devices, LLC, U.S.A.) for 1 hour at 37° C., 5% CO2. Test compounds (at 10 point half log concentration response curves from 10 μM) were added to cells for 15 minutes prior to the addition of orexin-A to all wells, to achieve a final concentration that produces approximately an 80% maximal response. The IC50 values were determined from ten point concentration response curves. Curves were generated using the average of two wells for each data point. The results obtained are shown in the table below in which ‘NT’ denotes ‘Not Tested’.

human orexin receptor 2 = human orexin receptor 2 (Homo sapiens (Human), UniProt O43614); assay: Orexin antagonist activity, intracellular calcium FLIPR assay (orexin receptor 2); assay type: cell-based; details: RBL-2H3 cells stably expressing human orexin receptor 2; orexin-A at approx. 80% maximal response; 15 min preincubation; read-out: Human Orexin2R IC50
Protocol: as §1

Chain of human orexin receptor 1 (O43613 whole entry): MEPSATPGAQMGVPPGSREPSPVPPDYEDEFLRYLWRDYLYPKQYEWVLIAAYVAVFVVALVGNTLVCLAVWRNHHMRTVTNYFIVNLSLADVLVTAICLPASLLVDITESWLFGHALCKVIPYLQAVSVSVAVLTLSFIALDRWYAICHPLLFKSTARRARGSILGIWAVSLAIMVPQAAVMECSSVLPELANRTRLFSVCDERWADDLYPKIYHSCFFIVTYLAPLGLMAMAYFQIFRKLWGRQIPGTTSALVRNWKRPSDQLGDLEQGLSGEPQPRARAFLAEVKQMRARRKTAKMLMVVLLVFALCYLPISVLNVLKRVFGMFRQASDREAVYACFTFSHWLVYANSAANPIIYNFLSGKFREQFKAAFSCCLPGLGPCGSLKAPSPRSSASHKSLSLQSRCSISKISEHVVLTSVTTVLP
Chain of human orexin receptor 2 (O43614 whole entry): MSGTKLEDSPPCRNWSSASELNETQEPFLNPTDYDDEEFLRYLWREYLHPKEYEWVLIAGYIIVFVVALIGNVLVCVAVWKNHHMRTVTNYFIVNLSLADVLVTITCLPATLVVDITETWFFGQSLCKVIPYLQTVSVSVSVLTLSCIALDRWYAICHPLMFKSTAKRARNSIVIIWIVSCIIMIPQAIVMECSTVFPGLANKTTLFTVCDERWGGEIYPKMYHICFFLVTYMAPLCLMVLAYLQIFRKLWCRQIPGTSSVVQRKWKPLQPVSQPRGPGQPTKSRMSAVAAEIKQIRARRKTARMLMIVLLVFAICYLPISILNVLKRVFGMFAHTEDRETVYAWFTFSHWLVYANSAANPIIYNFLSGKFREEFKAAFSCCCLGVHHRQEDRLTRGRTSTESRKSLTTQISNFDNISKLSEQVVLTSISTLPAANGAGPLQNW

Structure (SMILES)	pIC50 (human orexin receptor 1)	pIC50 (human orexin receptor 2)
COc1cccnc1C(=O)N[C@H]1CCC[C@@H]1Nc1nc2ccc(F)cc2o1 [Example 7, N-[(1S,2S)-2-[(6-Fluoro-1,3-benzoxazol-2-yl)amino]cyclopentyl]-3-methoxypyridine-2-carboxamide]	6.27	< 5.00
CCOc1ccc(C)nc1C(=O)NC1CCCC1Cc1ccc2ccccc2n1 (stereo not drawn) [Example 26, 3-Ethoxy-6-methyl-N-[2-(quinolin-2-ylmethyl)cyclopentyl]pyridine-2-carboxamide]	6.04	
COc1ccc(C)nc1C(=O)N[C@H]1CCC[C@@H]1Nc1nc2ccc(F)cc2s1 [Example 9, N-[(1S,2S)-2-[(6-Fluoro-1,3-benzothiazol-2-yl)amino]cyclopentyl]-3-methoxy-6-methylpyridine-2-carboxamide]	7.08	< 5.00
CCOc1cccnc1C(=O)N[C@H]1CCC[C@@H]1Nc1nc2ccc(F)cc2s1 [Example 18, 3-Ethoxy-N-[(1S,2S)-2[(6-fluoro-1,3-benzothiazol-2-yl)amino]cyclopentyl]pyridine-2-carboxamide]	7.39	5.06
CC(C)Oc1cccnc1C(=O)N[C@H]1CCC[C@@H]1Nc1nc2ccc(F)cc2s1 [Example 8, N-[(1S,2S)-2-[(6-Fluoro-1,3-benzothiazol-2-yl)amino]cyclopentyl]-3-(propan-2-yloxy)pyridine-2-carboxamide]	7.47	5.48
O=C(N[C@H]1CCC[C@@H]1Nc1nc2ccc(Cl)cc2s1)c1ncccc1-n1nccn1 [Example 21, N-[(1S,2S)-2-[(6-Chloro-1,3-benzothiazol-2-yl)amino]cyclopentyl]-3-(2H-1,2,3-triazol-2-yl)pyridine-2-carboxamide]	7.62	< 5.00
CCOc1ccc(C)nc1C(=O)NC1CCCC1Cc1ccc2ccccc2n1 (stereo not drawn) [Example 27, 3-Ethoxy-6-methyl-N-[2-(quinolin-2-ylmethyl)cyclopentyl]pyridine-2-carboxamide]	7.15	5.22
COc1cccnc1C(=O)N[C@H]1CCC[C@@H]1Nc1cnc2ccccc2n1 [Example 16, 3-Methoxy-N-[(1S,2S)-2-[(quinoxalin-2-yl)amino]cyclopentyl]pyridine-2-carboxamide]	6.20	
O=C(N[C@H]1CCC[C@@H]1Nc1nc2ccc(Cl)cc2s1)c1ncccc1OC(F)F [Example 22, N-[(1S,2S)-2-[(6-Chloro-1,3-benzothiazol-2-yl)amino]cyclopentyl]-3-(difluoromethoxy)pyridine-2-carboxamide]	6.52	< 5.00
COc1cccnc1C(=O)N(C)[C@H]1CCC[C@@H]1Nc1nc2ccc(F)cc2s1 [Example 5, N-[(1S,2S)-2-[(6-Fluoro-1,3-benzothiazol-2-yl)amino]cyclopentyl]-3-methoxy-N-methylpyridine-2-carboxamide]	7.85	5.55
COc1ccc(C(F)(F)F)nc1C(=O)N[C@H]1CCC[C@@H]1Nc1nc2ccc(F)cc2s1 [Example 17, N-[(1S,2S)-2-[(6-Fluoro-1,3-benzothiazol-2-yl)amino]cyclopentyl]-3-methoxy-6-(trifluoromethyl)pyridine-2-carboxamide]	6.68	5.02
O=C(N[C@H]1CCC[C@@H]1Nc1nc2ccc(F)cc2s1)c1ncccc1OC(F)F [Example 20, 3-(Difluoromethoxy)-N-[(1S,2S)-2-[(6-fluoro-1,3-benzothiazol-2-yl)amino]cyclopentyl]pyridine-2-carboxamide]	7.00	< 5.00
O=C(N[C@H]1CCC[C@@H]1Nc1nc2ccc(F)cc2s1)c1ncccc1OC(F)(F)F [Example 19, N-[(1S,2S)-2-[(6-Fluoro-1,3-benzothiazol-2-yl)amino]cyclopentyl]-3-(trifluoromethoxy)pyridine-2-carboxamide]	7.48	5.44
O=C(N[C@H]1CCC[C@@H]1Nc1nc2ccc(Cl)cc2o1)c1ncccc1OC(F)F [Example 25, N-[(1S,2S)-2-[(6-Chloro-1,3-benzoxazol-2-yl)amino]cyclopentyl]-3-(difluoromethoxy)pyridine-2-carboxamide]	6.18	< 5.00
O=C(N[C@H]1CCC[C@@H]1Nc1nc2ccc(F)cc2o1)c1ncccc1OC(F)F [Example 23, 3-(Difluoromethoxy)-N-[(1S,2S)-2-[(6-fluoro-1,3-benzoxazol-2-yl)amino]cyclopentyl]pyridine-2-carboxamide]	6.54	< 5.00

More lines, now with the values ahead:

pIC50 (human orexin receptor 1)	pIC50 (human orexin receptor 2)	Structure (SMILES)
8.07	< 5.00	O=C(N[C@H]1CCC[C@@H]1Nc1nc2ccc(F)cc2s1)c1ncccc1-n1nccn1 [Example 6, N-[(1S,2S)-2-[(6-Fluoro-1,3-benzothiazol-2-yl)amino]cyclopentyl]-3-(2H-1,2,3-triazol-2-yl)pyridine-2-carboxamide]
7.37	< 5.00	O=C(N[C@H]1CCC[C@@H]1Nc1nc2ccc(F)cc2s1)c1ncccc1Br [Example 1, 3-Bromo-N-[(1S,2S)-2-[(6-fluoro-1,3-benzothiazol-2-yl)amino]cyclopentyl]-pyridine-2-carboxamide]
6.77	< 5.00	O=C(N[C@H]1CCC[C@@H]1Nc1nc2ccc(F)cc2s1)c1ncccc1N1CCCC1 [Example 14, N-[(1S,2S)-2-[(6-Fluoro-1,3-benzothiazol-2-yl)amino]cyclopentyl]-3-(pyrrolidin-1-yl)pyridine-2-carboxamide]
7.07	< 5.00	O=C(N[C@H]1CCC[C@@H]1Nc1nc2ccc(F)cc2s1)c1ncccc1-n1ccnn1 [Example 24, N-[(1S,2S)-2-[(6-Fluoro-1,3-benzothiazol-2-yl)amino]cyclopentyl]-3-(1H-1,2,3-triazol-1-yl)pyridine-2-carboxamide]
7.16	< 5.00	O=C(N[C@H]1CCC[C@@H]1Nc1nc2ccc(F)cc2s1)c1ncccc1N1CCC1 [Example 13, 3-(Azetidin-1-yl)-N-[(1S,2S)-2-[(6-fluoro-1,3-benzothiazol-2-yl)amino]cyclopentyl]pyridine-2-carboxamide]
6.77	< 5.00	COc1cccnc1C(=O)N[C@H]1CCC[C@@H]1Nc1nc2ccc(F)cc2s1 [Example 3, N-[(1S,2S)-2-[(6-Fluoro-1,3-benzothiazol-2-yl)amino]cyclopentyl]-3-methoxypyridine-2-carboxamide]
6.82	< 5.00	COC1CN(c2cccnc2C(=O)N[C@H]2CCC[C@@H]2Nc2nc3ccc(F)cc3s2)C1 [Example 15, N-[(1S,2S)-2-[(6-Fluoro-1,3-benzothiazol-2-yl)amino]cyclopentyl]-3-(3-methoxyazetidin-1-yl)pyridine-2-carboxamide]
6.48	< 5.00	O=C(N[C@H]1CCC[C@@H]1Nc1nc2ccc(F)cc2s1)c1ncccc1F [Example 11, 3-Fluoro-N-[(1S,2S)-2-[(6-fluoro-1,3-benzothiazol-2-yl)amino]cyclopentyl]pyridine-2-carboxamide]
7.38	< 5.00	O=C(N[C@H]1CCC[C@@H]1Nc1nc2ccc(F)cc2s1)c1ncccc1N1CCCCC1 [Example 12, N-[(1S,2S)-2-[(6-Fluoro-1,3-benzothiazol-2-yl)amino]cyclopentyl]-3-(piperidin-1-yl)pyridine-2-carboxamide]
7.68	< 5.00	O=C(N[C@H]1CCC[C@@H]1Nc1nc2ccc(F)cc2s1)c1ncccc1-n1cccn1 [Example 10, N-[(1S,2S)-2-[(6-Fluoro-1,3-benzothiazol-2-yl)amino]cyclopentyl]-3-(1H-pyrazol-1-yl)pyridine-2-carboxamide]
